What is called IC50 is the concentration that inhibits the measured activity by half. Broadly, the Hill coefficient is a measure of the steepness of the concentration-response curve. What is called Kd is a measure of binding affinity in units of concentration. One may read the Ki as a measure of affinity in units of concentration, obtained from inhibition or displacement. Lower therefore signals tighter binding. The kcat/Km is the turnover number divided by the Michaelis constant. The stoichiometry N is the number of molecules, sites or subunits per partner or assembly.

In series [1] the target is T1, MtPRS (Mycobacterium tuberculosis, UniProt P9WKE3). Briefly: MtPRS inhibition assays (coupled assay, fixed R5P and ATP). The class given is biochemical. On the procedure: (§1) All chemicals were purchased from Sigma Aldrich. All enzyme activity assays were performed in triplicate. MtPRS activity was measured by a coupled continuous spectrophotometric assay in quartz cuvettes using a UV-visible Shimadzu spectrophotometer UV2550 equipped with a temperature-controlled cuvette holder. […] Homogeneous recombinant MtOPRT was obtained as described elsewhere. […] The reaction mixture (500 µL) contained 1.8 U MtOPRT, 300 µM OA, 20 mM MgCl2, in Tris HCl 50 mM pH 8.0. Reaction was started by addition of MtPRS (0.24–1.2 µM). One unit of MtPRS is defined as the amount of enzyme necessary to convert 1 µmol of R5P to PRPP per min. Effect of Pi over MtPRS activity was assessed by varying Pi concentration (10–50 mM) in the reaction conditions described above.
All measurements were performed in triplicate. The concentration of inhibitor required to reduce the fractional enzyme activity to half of its initial value in the absence of inhibitor (IC50) was obtained from fitting the data to Eq. (4) for partial inhibition, in which y is the fractional activity of the enzyme in the presence of inhibitor at concentration [I]; y (max) is the maximum value of y observed at [I] = 0; and y min is the minimum limiting value of y at high inhibitor concentrations. [drawing 4] (4)

In series [2] the target is T2, MtOPRT (M. tuberculosis orotate phosphoribosyltransferase) (Mycobacterium tuberculosis, UniProt P9WHK9).
T2 construct: made in house
As to the kind of experiment: Control measurement of coupled enzyme MtOPRT activity in presence of donors and inhibitors. Type of series: biochemical. The following applies: compounds present in the assay mixtures of the coupled assays; data not shown. On the procedure: as §1
Accordingly, the effects of the alternative diphosphoryl group donors, or nucleoside 5′-diphosphate or monophosphate inhibitors, were solely due to changes in MtPRS enzyme activity.

The test system of series [3] is M. tuberculosis PRS. Conditions: cited from earlier work; for IC50: read-out: IC50 (inhibition of MtPRS activity).
Series [4] addresses T1, MtPRS. Briefly: Intrinsic tryptophan fluorescence (ITF) titration, binary complex formation at equilibrium. Type of series: binding. Conditions: for Kd: Tris HCl 50 mM pH 7.5, MgCl2 20 mM, read-out: KD (hyperbolic binding to free MtPRS); for change in intrinsic protein fluorescence upon titration of free MtPRS: absence of second substrate. The procedure: Intrinsic tryptophan fluorescence titration was carried out to assess binary complex formation at equilibrium between MtPRS and either substrate(s) or product(s) at 25°C [43]. […] Fluorescence titrations were performed by making microliter additions of substrates and products at varying stock concentrations to 1 mL of MtPRS 3 µM, with a maximum dilution of 6%. […] After each ligand titration, the mixture was stirred for 3 minutes to ensure equilibrium binding prior to ITF measurements. […] Control experiments were performed in the same conditions in the absence of MtPRS to verify any inner filter effect, and the values found in the control experiments were subtracted from those obtained in the presence of the enzyme. No corrections for effects of protein dilution on ITF upon addition of buffer A containing MgCl2 20 mM to MtPRS were necessary. Data from equilibrium fluorescence spectroscopy were fitted to Eq. (5) for hyperbolic binding isotherms, in which F is the observed fluorescence signal; F max is the maximal fluorescence intensity; and KD represents the dissociation constant for binding of substrate and/or product to MtPRS. Sigmoidal binding data were fitted Eq. (6), in which F is the observed fluorescence signal, F max is the maximal fluorescence intensity, n is the Hill coefficient, and K’ is a constant comprising interaction factors and the intrinsic dissociation constant. [drawing 5] (5) [drawing 6] (6)

For series [5], the system named is M. tuberculosis PRS. Conditions: ref Alderwick, et al. 2011 [30], cited from earlier work.
In series [6] the target is T3, MtPRS (Mycobacterium tuberculosis phosphoribosylpyrophosphate synthase) (Mycobacterium tuberculosis, UniProt P9WKE3). The following applies: diphosphoryl donor varied, R5P fixed at 60 µM, 25°C.
Another series has as its system S. typhimurium PRS. Set-up: method as in PMID 211378. The following applies: cited from earlier work.
The target of series [7] is T3, MtPRS (Mycobacterium tuberculosis phosphoribosylpyrophosphate synthase). As to the kind of experiment: biochemical.
Series [8] deals with Nc1nc2c(ncn2[C@@H]2O[C@H](COP(=O)(O)OP(=O)(O)OP(=O)(O)O)[C@@H](O)[C@H]2O)c(=O)[nH]1. As to the kind of experiment: purified protein, by the assay type. Conditions: pH 8.0.
Series [9] concerns O=P(O)(O)OC[C@H]1O[C@H](O)[C@H](O)[C@@H]1O. Briefly: purified protein, by the assay type. Conditions: pH 8.0.
Series [10] has as its system O=c1ccn([C@@H]2O[C@H](COP(=O)(O)OP(=O)(O)OP(=O)(O)O)[C@@H](O)[C@H]2O)c(=O)[nH]1. As to the kind of experiment: purified protein, by the assay type. Conditions: pH 8.0.
Series [11] deals with the molecule itself. As to the kind of experiment: cross-linking; glutaraldehyde vapour cross-linking, 0.3 mg/mL MtPRS in Tris HCl 50 mM pH 7.5 with ADP 5 mM, with or without Pi 50 mM, 30°C, 12% SDS-PAGE.
Series [12] concerns the molecule itself. Briefly: cross-linking; glutaraldehyde vapour cross-linking, 0.3 mg/mL MtPRS in Tris HCl 50 mM pH 7.5 with ATP 5 mM, with or without Pi 50 mM, 30°C, 12% SDS-PAGE.
Series [13] concerns the molecule itself. As to the kind of experiment: cross-linking; glutaraldehyde vapour cross-linking, 0.3 mg/mL MtPRS in Tris HCl 50 mM pH 7.5 with R5P 5 mM, with or without Pi 50 mM, 30°C, 12% SDS-PAGE.
Series [14] concerns the molecule itself. Briefly: cross-linking; glutaraldehyde vapour cross-linking, 0.3 mg/mL apo MtPRS in Tris HCl 50 mM pH 7.5, with or without Pi 50 mM, 30°C, different incubation times, 12% SDS-PAGE.
Series [15] concerns the molecule itself. Described as above. This is another data set of the same source.
Setting [16] is: read-out: IC50 (partial inhibition of MtPRS activity).
Setting [17] is: 37°C, KH2PO4 50 mM pH 8.0, ref Lucarelli, et al. 2010 [31].
Where [18] appears, read: ref Lucarelli, et al. 2010 [31].

“And” between values parts separate entries of the source, which are not always exact repeats. Identical values can stand only once. “Also recorded” adds a separate entry of the source. Like-named read-outs stand apart in the source and are kept apart here.

T2 sequence (P9WHK9 whole entry): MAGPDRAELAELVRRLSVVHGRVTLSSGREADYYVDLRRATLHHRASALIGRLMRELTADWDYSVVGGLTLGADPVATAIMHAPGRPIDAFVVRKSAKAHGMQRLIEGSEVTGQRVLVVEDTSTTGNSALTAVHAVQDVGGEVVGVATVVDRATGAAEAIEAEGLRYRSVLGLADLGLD

`Nc1ncnc2c1ncn2[C@@H]1O[C@H](COP(=O)(O)OP(=O)(O)O)[C@@H](O)[C@H]1O` [ADP, adenosine 5′-diphosphate]: the IC50 on MtPRS [1] (setting [16]) is 70 µM; in the series on M. tuberculosis PRS [3] (saturating ATP and non-saturating Pi concentrations) it was 260 µM; in the series with M. tuberculosis PRS [3] (saturating ATP and saturating Pi concentrations), 400 µM. Further, in [2], the “effect on MtOPRT enzyme activity” value is “did not have any effect”.

Regarding `Nc1ncnc2c1ncn2[C@@H]1O[C@H](COP(=O)(O)O)[C@@H](O)[C@H]1O` [AMP], the “K' (sigmoidal binding, Hill equation)” value on MtPRS [4] (25°C, MtPRS 3 µM, MgCl2 20 mM) was 109 (±3) µM and 109 µM. The molecule further yielded a Hill coefficient at MtPRS [4] (sigmoidal binding to free MtPRS) of 3.2.

As to `Nc1ncnc2c1ncn2[C@@H]1O[C@H](COP(=O)(O)OP(=O)(O)OP(=O)(O)O)[C@@H](O)[C@H]1O` [ATP, adenosine 5′-triphosphate], the Kd on MtPRS [4] (25°C, MtPRS 3 µM) came out at 18 µM. For the same molecule, the “effect on MtOPRT enzyme activity” value in series [2] is on record as “did not have any effect”. The Vmax in the series on M. tuberculosis PRS [5] (37°C, KH2PO4 50 mM pH 8.0) is 601 µmol⁻¹ min⁻¹ mg⁻¹. Also, in the series on M. tuberculosis PRS [5], the S0.5 is recorded as 62.65 µM and the “n (Hill coefficient)” value is on record as 1.68. The kcat in the series on M. tuberculosis PRS [3] (setting [17]) was 34.6 (±3) s^−1. Further, in the series on M. tuberculosis PRS [3] (setting [18]), the S0.5 is listed as 260 (±50) µM and the “n (Hill coefficient)” value is 1.

On to `Nc1ccn([C@@H]2O[C@H](COP(=O)(O)OP(=O)(O)OP(=O)(O)O)[C@@H](O)[C@H]2O)c(=O)n1` [CTP, cytosine 5′-triphosphate], for which the “change in intrinsic protein fluorescence upon titration of free MtPRS” value (“change … of free MtPRS” for short) at MtPRS [4] (25°C, MtPRS 3 µM) is given as “No change in protein fluorescence; also recorded: no change in IFT could be detected”. Also, the “effect on MtOPRT enzyme activity” value in series [2] is recorded as “did not have any effect”. Besides, in series [6] (pH 8.0, no Pi), the “Vmax (apparent)” value is 0.111 (±0.003) µmol^−1 min^−1 mg^−1 and the kcat is 0.065 (±0.001) s^−1. The Km in series [6] (read-out: KM (apparent), Tris HCl 50 mM pH 8.0, MgCl2 20 mM, no Pi) worked out at 26 µM. In the series with S. typhimurium PRS, the “activity as alternative substrate, of maximum reported activity using ATP as substrate” value (“activity as alternative substrate” for short) is given as 3%.

On to `Nc1nc2c(ncn2[C@@H]2O[C@H](COP(=O)(O)OP(=O)(O)O)[C@@H](O)[C@H]2O)c(=O)[nH]1` [GDP, guanosine 5′-diphosphate], for which the half-maximal inhibitory concentration (IC50) at MtPRS [1] (setting [16]) is 900 µM; in the series with M. tuberculosis PRS [3] (in the presence of Pi), above 5000 µM. For the same molecule, the “effect on MtOPRT enzyme activity” value in series [2] is on record as “did not have any effect”.

As to `Nc1nc2c(ncn2[C@@H]2O[C@H](COP(=O)(O)OP(=O)(O)OP(=O)(O)O)[C@@H](O)[C@H]2O)c(=O)[nH]1` [GTP, guanosine 5′-triphosphate], at MtPRS [4] (25°C, MtPRS 3 µM), the Kd worked out at 21 µM. In series [2], the “effect on MtOPRT enzyme activity” value is on record as “did not have any effect”. The “activity as alternative substrate” value in the series on S. typhimurium PRS is given as 3%.

With `O=c1[nH]cnc2c1ncn2[C@@H]1O[C@H](COP(=O)(O)OP(=O)(O)OP(=O)(O)O)[C@@H](O)[C@H]1O` [ITP], the “activity as alternative substrate” value with S. typhimurium PRS is 3%.

Regarding `O=P(O)(O)OC[C@H]1O[C@H](OP(=O)(O)OP(=O)(O)O)[C@H](O)[C@@H]1O` [PRPP, 5-phospho-α-D-ribose 1-diphosphate], at MtPRS [4] (25°C, MtPRS 3 µM), the “change … of free MtPRS” value is recorded as “no intrinsic protein fluorescence change; also recorded: No change in ITF could be detected”.

As to `O=P(O)(O)OC[C@H]1O[C@H](O)[C@H](O)[C@@H]1O` [R5P, α-D-ribose 5-phosphate], on MtPRS [4] (25°C, MtPRS 3 µM), the Kd came out at 61 µM. Besides, in the series on M. tuberculosis PRS [5] (37°C, KH2PO4 50 mM pH 8.0), the Km is 8.2 µM, the Vmax is 530 µmol⁻¹ min⁻¹ mg⁻¹ and the kcat was 60.68 s⁻¹. In the series on M. tuberculosis PRS [3] (setting [17]), the Km is 71 µM and the kcat was 37.1 s⁻¹. Besides, the affinity in [7], expressed as Ki, was 211 µM.

As for `O=c1ccn([C@@H]2O[C@H](COP(=O)(O)O)[C@@H](O)[C@H]2O)c(=O)[nH]1` [UMP], at MtPRS [1] (R5P 60 µM, ATP 300 µM fixed, 0.24 µM MtPRS, no Pi, fit to partial inhibition equation), the concentration for half-maximal inhibition (IC50) was 3000 µM. For the same molecule, in series [2], the “effect on MtOPRT enzyme activity” value was “did not have any effect”.

Consider `O=c1ccn([C@@H]2O[C@H](COP(=O)(O)OP(=O)(O)OP(=O)(O)O)[C@@H](O)[C@H]2O)c(=O)[nH]1` [UTP, uridine 5′-triphosphate], for which the “change … of free MtPRS” value on MtPRS [4] (25°C, MtPRS 3 µM) was “No change in protein fluorescence; also recorded: no change in IFT could be detected”. Also, the “effect on MtOPRT enzyme activity” value in series [2] is “did not have any effect”. Also, the “activity as alternative substrate” value with S. typhimurium PRS is listed as 3%.

On to “MtPRS (Mycobacterium tuberculosis phosphoribosylpyrophosphate synthase) (Mycobacterium tuberculosis H37Rv)”, for which, in [8], the Km is reported as 37 (±9) µM, the Vmax was determined as 0.237 µmol/min/mg, the kcat came out at 0.14 ± 0.002 s⁻¹ and the kcat/Km was found to be 3800 ± 900 M⁻¹ s⁻¹. In addition, in series [9], the Km is on record as 14 (±2) µM, the Vmax turned out to be 1.41 µmol/min/mg, the kcat stood at 0.83 ± 0.04 s⁻¹ and the specificity constant (kcat/Km) is 59000 ± 8000 M⁻¹ s⁻¹. Besides, in [10], the Km is 52 (±7) µM, the Vmax was determined as 0.264 µmol/min/mg, the kcat turned out to be 0.155 s⁻¹ and the kcat/Km was determined as 3000 M⁻¹ s⁻¹.

B1: Mycobacterium tuberculosis phosphoribosylpyrophosphate synthase (MtPRS) (enzyme)
chain: MSHDWTDNRKNLMLFAGRAHPELAEQVAKELDVHVTSQDAREFANGEIFVRFHESVRGCDAFVLQSCPAPVNRWLMEQLIMIDALKRGSAKRITAVMPFYPYARQDKKHRGREPISARLIADLLKTAGADRIVTVDLHTDQIQGFFDGPVDHMRGQNLLTGYIRDNYPDGNMVVVSPDSGRVRIAEKWADALGGVPLAFIHKTRDPRVPNQVVSNRVVGDVAGRTCVLIDDMIDTGGTIAGAVALLHNDGAGDVIIAATHGVLSDPAAQRLASCGAREVIVTNTLPIGEDKRFPQLTVLSIAPLLASTIRAVFENGSVTGLFDGDA
notes: also called prsA gene product; Rv1017c
Regarding B1, the “stoichiometry N” value in [11] was found to be 4; in [12], 2; in series [13], 6; in series [14], 3; in series [15], 6.
